# Data: paper PMC8851638 (ACS Omega, 2022)
# Several values for one entry are separate records, joined by “and”; a condition that tells them apart may be missing. Equal values may be shown once.
# Key:
# [1] = system: C. albicans200 (MDR00200); assay: MIC and MFC by broth microdilution; type: cell-based, Candida albicans; conditions: for MFC/MIC: C. albicans200, ratio in parentheses; for MIC: Candida albicans, read-out: MIC (mean ± SEM), C. albicans200, broth microdilution
# [2] = system: A. baumannii; assay: Checkerboard combination assay with Ciprofloxacin; type: cell-based
# [3] = system: K. pneumoniae (MDR00244); assay: MIC and MBC by broth microdilution; type: cell-based; conditions: ratio in parentheses
# [4] = system: S. aureus biofilm; assay: Staphylococcus biofilm mass reduction; type: cell-based; conditions: at their MIC
# [5] = system: A. baumannii; assay: Time-kill kinetic assay; type: cell-based; conditions: 2 × MIC
# [6] = system: K. pneumoniae; assay: Single-step resistance selection; type: cell-based; conditions: 4 × MIC, 48 h
# [7] = system: H9C2: rat heart/myocardium; assay: In vitro cytotoxicity on normal cell line; type: cell-based
# [8] = In vitro cytotoxicity on normal cell line; type: cell-based, rat; conditions: rat, H9C2 heart/myocardium cells
# [9] = system: E. coli; assay: Single-step resistance selection; type: cell-based; conditions: 4 × MIC, 48 h
# [10] = system: E. coli (MDR00501); assay: MIC and MBC by broth microdilution; type: cell-based
# [11] = system: C. albicans200 (MDR00200); assay: Agar well-diffusion antimicrobial sensitivity assay; type: cell-based, Candida albicans; conditions: Candida albicans, read-out: Inhibition Zone (IZ)
# [12] = system: B. subtilis; assay: Single-step resistance selection; type: cell-based; conditions: 4 × MIC, 48 h
# [13] = system: S. epidermidis (MDR00223); assay: MIC and MBC by broth microdilution; type: cell-based, Staphylococcus epidermidis
# [14] = system: B. subtilis; assay: Time-kill kinetic assay; type: cell-based; conditions: 2 × MIC
# [15] = system: all the pathogenic isolates tested; assay: Time-kill kinetic assay, whole panel; type: cell-based
# [16] = system: BNL: mouse normal liver cells; assay: In vitro cytotoxicity on normal cell line; type: cell-based
# [17] = In vitro cytotoxicity on normal cell line; type: cell-based, mouse; conditions: mouse, BNL normal liver cells
# [18] = system: E. coli; assay: Checkerboard combination assay with Ciprofloxacin; type: cell-based
# [19] = system: clinical pathogenic isolates; assay: Single-step resistance selection, whole panel; type: cell-based; conditions: 4 × MIC
# [20] = system: S. epidermidis; assay: Checkerboard combination assay with Ciprofloxacin; type: cell-based, Staphylococcus epidermidis
# [21] = system: C. albicans200; assay: Checkerboard combination assay with Ketoconazole; type: cell-based, Candida albicans
# [22] = system: RBCs; assay: Hemolytic assay; type: cell-based; conditions: human RBCs; compounds 1.0 mg/mL; Triton X-100 0.1% v/v; 37 °C, 35 min
# [23] = system: S. aureus; assay: Time-kill kinetic assay; type: cell-based, Staphylococcus aureus
# [24] = system: Vero: green monkey kidney; assay: In vitro cytotoxicity on normal cell line; type: cell-based
# [25] = In vitro cytotoxicity on normal cell line; type: cell-based, green monkey; conditions: green monkey, Vero kidney cells
# [26] = system: S. epidermidis; assay: Single-step resistance selection; type: cell-based, Staphylococcus epidermidis; conditions: 4 × MIC, 48 h
# [27] = system: C. albicans100 (MDR00100); assay: MIC and MFC by broth microdilution; type: cell-based, Candida albicans; conditions: for MFC/MIC: ratio in parentheses; for MIC: Candida albicans, read-out: MIC (mean ± SEM), C. albicans100
# [28] = system: C. albicans100 (MDR00100); assay: Agar well-diffusion antimicrobial sensitivity assay; type: cell-based, Candida albicans; conditions: Candida albicans, read-out: Inhibition Zone (IZ)
# [29] = target: E. coli DNA gyrase (Escherichia coli, UniProt P0AES4+P0AES6); assay: DNA gyrase inhibition; type: biochemical
# Chain of E. coli DNA gyrase (P0AES4 whole entry, one chain of several): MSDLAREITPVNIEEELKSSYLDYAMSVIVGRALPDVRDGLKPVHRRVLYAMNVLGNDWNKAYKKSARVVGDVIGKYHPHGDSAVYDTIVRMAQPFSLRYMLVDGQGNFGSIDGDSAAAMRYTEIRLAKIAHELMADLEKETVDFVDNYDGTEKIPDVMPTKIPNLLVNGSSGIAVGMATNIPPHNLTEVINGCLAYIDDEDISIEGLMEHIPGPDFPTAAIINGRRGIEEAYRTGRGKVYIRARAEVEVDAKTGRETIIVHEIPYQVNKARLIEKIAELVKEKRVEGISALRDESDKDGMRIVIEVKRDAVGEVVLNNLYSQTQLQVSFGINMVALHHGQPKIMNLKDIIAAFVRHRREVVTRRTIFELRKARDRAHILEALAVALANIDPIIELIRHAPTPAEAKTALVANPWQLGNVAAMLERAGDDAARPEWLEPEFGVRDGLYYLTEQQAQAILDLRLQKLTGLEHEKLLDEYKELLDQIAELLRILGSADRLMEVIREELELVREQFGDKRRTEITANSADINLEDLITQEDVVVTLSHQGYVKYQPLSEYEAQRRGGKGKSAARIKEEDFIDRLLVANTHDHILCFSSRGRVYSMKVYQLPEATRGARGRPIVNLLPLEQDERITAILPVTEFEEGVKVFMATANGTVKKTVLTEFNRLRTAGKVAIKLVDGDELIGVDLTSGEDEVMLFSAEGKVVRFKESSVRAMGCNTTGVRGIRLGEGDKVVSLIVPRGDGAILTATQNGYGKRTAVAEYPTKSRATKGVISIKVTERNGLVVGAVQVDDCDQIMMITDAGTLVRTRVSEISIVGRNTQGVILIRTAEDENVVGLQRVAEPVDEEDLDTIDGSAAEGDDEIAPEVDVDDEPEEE
# [30] = system: B. subtilis; assay: Checkerboard combination assay with Ciprofloxacin; type: cell-based
# [31] = system: E. coli (MDR00501); assay: Agar well-diffusion antimicrobial sensitivity assay; type: cell-based; conditions: Escherichia coli, read-out: Inhibition Zone (IZ)
# [32] = system: K. pneumoniae; assay: Time-kill kinetic assay; type: cell-based; conditions: 2 × MIC
# [33] = system: S. aureus (MDR00231); assay: MIC and MBC by broth microdilution; type: cell-based, Staphylococcus aureus
# [34] = system: S. epidermidis; assay: Time-kill kinetic assay; type: cell-based, Staphylococcus epidermidis; conditions: 2 × MIC
# [35] = target: T1, dihydrofolate reductase (DHFR) (Homo sapiens, UniProt P00374); assay: DHFR inhibition; type: biochemical
# T1 sequence (P00374 1-187): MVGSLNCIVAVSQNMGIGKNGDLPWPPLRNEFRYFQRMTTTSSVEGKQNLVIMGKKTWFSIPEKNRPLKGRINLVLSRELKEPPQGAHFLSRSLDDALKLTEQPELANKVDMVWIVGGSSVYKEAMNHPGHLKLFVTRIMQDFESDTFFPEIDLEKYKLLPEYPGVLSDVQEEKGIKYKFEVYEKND
# [36] = system: C. albicans100; assay: Checkerboard combination assay with Ketoconazole; type: cell-based, Candida albicans
# [37] = system: E. coli; assay: Time-kill kinetic assay; type: cell-based
# [38] = system: S. epidermidis biofilm; assay: Staphylococcus biofilm mass reduction; type: cell-based; conditions: at their MIC
# [39] = system: S. aureus; assay: Checkerboard combination assay with Ciprofloxacin; type: cell-based, Staphylococcus aureus
# [40] = system: C. albicans200; assay: Single-step resistance selection; type: cell-based, Candida albicans; conditions: 4 × MIC, 48 h
# [41] = system: C. albicans100; assay: Single-step resistance selection; type: cell-based, Candida albicans; conditions: 4 × MIC, 48 h
# [42] = system: S. aureus; assay: Single-step resistance selection; type: cell-based, Staphylococcus aureus; conditions: 4 × MIC, 48 h
# [43] = system: S. aureus (MDR00231); assay: Agar well-diffusion antimicrobial sensitivity assay; type: cell-based, Staphylococcus aureus; conditions: Staphylococcus aureus, read-out: Inhibition Zone (IZ)
# [44] = system: A. baumannii; assay: Single-step resistance selection; type: cell-based; conditions: 4 × MIC, 48 h
# [45] = system: S. epidermidis (MDR00223); assay: Agar well-diffusion antimicrobial sensitivity assay; type: cell-based, Staphylococcus epidermidis; conditions: Staphylococcus epidermidis, read-out: Inhibition Zone (IZ)
# [46] = system: K. pneumoniae; assay: Checkerboard combination assay with Ciprofloxacin; type: cell-based
# [47] = system: B. subtilis (MDR00423); assay: MIC and MBC by broth microdilution; type: cell-based
# [48] = system: A. baumannii (MDR00521); assay: MIC and MBC by broth microdilution; type: cell-based; conditions: ratio in parentheses
# [49] = system: C. albicans200; assay: Time-kill kinetic assay; type: cell-based, Candida albicans
# [50] = system: C. albicans100; assay: Time-kill kinetic assay; type: cell-based, Candida albicans
compound,measurement,setting,value
"CCOC(=O)c1c(N)csc1-c1cn(-c2ccccc2)nc1-c1ccc(C)cc1 [Compound 7b, Ethyl 4-Amino-2-(1-phenyl-3-(p-tolyl)-1H-pyrazol-4-yl)thiophene-3-carboxylate]",MFC/MIC,[1],0.5
same,MIC,[1],0.23 ± 0.3 µg/mL
same,combination effect,[2],S (S: synergism)
same,fractional inhibitory concentration index (FICI),[2],0.25
same,MBC/MIC,[3],1
same,reduction of biofilm formation,[4],67%
same,time after which cells were rapidly reduced,[5],8 h
same,Single-step resistance frequency (mutation frequency),[6],1.67 × 10^–7
same,Selectivity index against DHFR,[7]; IC50 of H9C2 / IC50 of DHFR,195.44
same,Selectivity index against DNA gyrase,[7]; IC50 of H9C2 / IC50 of DNA gyrase,8.28
same,IC50 at 72 h,[8],102 ± 1.39 µM
same,Single-step resistance frequency (mutation frequency),[9],1.90 × 10^–6
same,MBC/MIC,"[10]; E. coli, ratio in parentheses",0.5
same,MIC,"[10]; Escherichia coli, read-out: MIC (mean ± SEM), E. coli, broth microdilution",0.23 ± 0.1 µg/mL
same,zone of inhibition at 100000 µg/mL,[11],32 ± 0.32 mm
same,Single-step resistance frequency (mutation frequency),[12],1.30 × 10^–7
same,MBC/MIC,"[13]; S. epidermidis, ratio in parentheses",0.5
same,MIC,"[13]; Staphylococcus epidermidis, read-out: MIC (mean ± SEM), S. epidermidis, broth microdilution",0.24 ± 0.2 µg/mL
same,time after which cells were rapidly reduced,[14],12 h
same,reduction in the viable cell count relative to the initial inoculum,[15],≥ 3 log10
same,Selectivity index against DHFR,[16]; IC50 of BNL / IC50 of DHFR,198.65
same,Selectivity index against DNA gyrase,[16]; IC50 of BNL / IC50 of DNA gyrase,8.41
same,IC50 at 72 h,[17],103 ± 1.51 µM
same,combination effect,[18],S (S: synergism)
same,fractional inhibitory concentration index (FICI),[18],0.5
same,"mutation frequency, range over panel",[19],1.34 × 10^–6 to 1.67 × 10^–7
same,combination effect,[20],S (S: synergism)
same,fractional inhibitory concentration index (FICI),[20],0.25
same,combination effect,[21],S (S: synergism)
same,%lysis of RBCs,[22],3.23% and 3.23 ± 0.58%
same,time of maximum reduction,[23]; 1/2 × MIC,24 h
same,time after which cells were rapidly reduced,[23]; 2 × MIC,8 h
same,Selectivity index against DHFR,[24]; IC50 of Vero / IC50 of DHFR,151.61
same,Selectivity index against DNA gyrase,[24]; IC50 of Vero / IC50 of DNA gyrase,6.42
same,IC50 at 72 h,[25],78.8 ± 1.1 µM
same,Single-step resistance frequency (mutation frequency),[26],1.62 × 10^–6
same,MFC/MIC,[27]; C. albicans100,1
same,MIC,[27]; broth microdilution,0.25 ± 0.2 µg/mL
same,zone of inhibition at 100000 µg/mL,[28],31 ± 0.11 mm
same,IC50,[29],12.3 ± 0.34 µM
same,combination effect,[30],S (S: synergism)
same,fractional inhibitory concentration index (FICI),[30],0.5
same,zone of inhibition at 100000 µg/mL,[31],30 ± 0.5 mm
same,time after which cells were rapidly reduced,[32],12 h
same,MBC/MIC,"[33]; S. aureus, ratio in parentheses",0.5
same,MIC,"[33]; Staphylococcus aureus, read-out: MIC (mean ± SEM), S. aureus, broth microdilution",0.22 ± 0.3 µg/mL
same,time after which cells were rapidly reduced,[34],12 h
same,IC50,[35],0.52 ± 0.2 µM
same,combination effect,[36],S (S: synergism)
same,fractional inhibitory concentration index (FICI),[36],0.5
same,time of maximum reduction,[37]; 1/2 × MIC,24 h
same,time after which cells were rapidly reduced,[37]; 2 × MIC,4 h
same,reduction of biofilm formation,[38],58%
same,combination effect,[39],S (S: synergism)
same,fractional inhibitory concentration index (FICI),[39],0.25
same,Single-step resistance frequency (mutation frequency),[40],3.10 × 10^–6
same,Single-step resistance frequency (mutation frequency),[41],2.51 × 10^–6
same,Single-step resistance frequency (mutation frequency),[42],1.34 × 10^–6
same,zone of inhibition at 100000 µg/mL,[43],33 ± 0.32 mm
same,Single-step resistance frequency (mutation frequency),[44],2.11 × 10^–6
same,zone of inhibition at 100000 µg/mL,[45],31 ± 0.16 mm
same,combination effect,[46],S (S: synergism)
same,fractional inhibitory concentration index (FICI),[46],0.5
same,MBC/MIC,"[47]; B. subtilis, ratio in parentheses",1
same,MIC,"[47]; Bacillus subtilis, read-out: MIC (mean ± SEM), B. subtilis, broth microdilution",0.23 ± 0.6 µg/mL
same,MBC/MIC,[48],1
"CC(=O)N1CCN(c2ccc(OCC3COC(Cn4ccnc4)(c4ccc(Cl)cc4Cl)O3)cc2)CC1 (stereo not shown) [KCA, Ketoconazole, reference compound]",MFC/MIC,[1],0.5
same,MIC,[1],0.45 ± 0.3 µg/mL
same,zone of inhibition at 100000 µg/mL,[11],24 ± 0.54 mm
same,"mutation frequency, range over panel",[19],3.19 × 10^–8 to 3.42 × 10^–9
same,time of reduction in the colony-forming units,[49],48 h
same,%lysis of RBCs,[22],15.38% and 15.38 ± 0.32%
same,MIC (mean ± SEM),"[27]; C. albicans100, broth microdilution",0.49 ± 0.3 µg/mL
same,MFC/MIC,[27]; C. albicans100,1
same,MIC,[27]; broth microdilution,0.49 µg/mL
same,zone of inhibition at 100000 µg/mL,[28],21 ± 0.23 mm
same,Single-step resistance frequency (mutation frequency),[40],3.19 × 10^–8
same,time of reduction in the colony-forming units,[50],48 h
same,Single-step resistance frequency (mutation frequency),[41],3.42 × 10^–9
